What was measured:
A375 melanoma cells = assay: CFSE cell proliferation assay, A375; format: cell-based, human
Description: For staining with CFSE (Molecular Probes, Eugene, Oreg.)., 1×10^7/ml cells were suspended in PBS and incubated at 37° C. for 5 min with the 10 μM of CFSE. Stained cells were cultured with medium alone or with inhibitor for 24, 48, and 72 hours, fixed and analyzed by a FACS Calibur cytometer (Becton Dickinson, San Jose, Calif.).

melanoma tumor = assay: Melanoma tumor in nude mice, 5 days of treatment; format: in vivo; details: 15 mg/kg intraperitoneal for 5 days, p<0.05
IGF-1R = IGF-1R (Homo sapiens, UniProt P08069); assay: Kinase profiler screening, IGF-1R; format: biochemical; details: 1 μM compound, 10 μM ATP
IGF-1R, sequence (P08069 31-1367): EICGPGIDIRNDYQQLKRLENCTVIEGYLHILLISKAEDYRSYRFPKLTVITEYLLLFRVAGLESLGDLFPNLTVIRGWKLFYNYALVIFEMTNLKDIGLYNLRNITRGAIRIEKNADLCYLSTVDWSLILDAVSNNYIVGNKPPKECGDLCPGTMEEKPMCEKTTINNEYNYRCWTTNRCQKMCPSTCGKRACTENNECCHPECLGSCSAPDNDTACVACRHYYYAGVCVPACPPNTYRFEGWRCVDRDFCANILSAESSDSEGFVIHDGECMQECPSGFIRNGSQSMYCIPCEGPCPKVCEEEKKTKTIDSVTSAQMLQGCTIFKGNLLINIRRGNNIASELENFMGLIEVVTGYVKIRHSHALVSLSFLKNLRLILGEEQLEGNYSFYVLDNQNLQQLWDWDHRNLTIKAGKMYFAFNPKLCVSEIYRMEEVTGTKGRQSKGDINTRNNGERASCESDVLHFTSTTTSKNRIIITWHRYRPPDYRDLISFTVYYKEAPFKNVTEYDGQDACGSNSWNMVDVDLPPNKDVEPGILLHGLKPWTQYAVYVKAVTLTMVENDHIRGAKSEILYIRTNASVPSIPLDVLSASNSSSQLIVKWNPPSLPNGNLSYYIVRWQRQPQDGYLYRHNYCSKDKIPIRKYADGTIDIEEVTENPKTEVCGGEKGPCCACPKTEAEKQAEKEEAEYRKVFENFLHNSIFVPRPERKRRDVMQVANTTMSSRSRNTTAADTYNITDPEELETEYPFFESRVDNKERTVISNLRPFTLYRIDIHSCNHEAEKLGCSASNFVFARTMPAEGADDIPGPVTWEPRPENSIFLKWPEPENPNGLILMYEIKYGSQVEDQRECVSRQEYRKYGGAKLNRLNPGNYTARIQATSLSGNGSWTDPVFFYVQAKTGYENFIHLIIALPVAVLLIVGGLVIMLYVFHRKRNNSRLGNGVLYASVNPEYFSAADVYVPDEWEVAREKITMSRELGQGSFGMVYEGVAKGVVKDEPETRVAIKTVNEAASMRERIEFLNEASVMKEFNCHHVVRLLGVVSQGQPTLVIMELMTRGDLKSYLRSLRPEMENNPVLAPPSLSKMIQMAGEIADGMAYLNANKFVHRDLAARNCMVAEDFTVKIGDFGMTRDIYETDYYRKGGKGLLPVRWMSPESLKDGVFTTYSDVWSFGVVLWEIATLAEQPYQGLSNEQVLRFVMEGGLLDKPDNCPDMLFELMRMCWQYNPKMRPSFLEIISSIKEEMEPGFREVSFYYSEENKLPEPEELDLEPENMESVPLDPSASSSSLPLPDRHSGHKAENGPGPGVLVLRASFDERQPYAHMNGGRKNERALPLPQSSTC
Description: (§1) Kinase Profiler Screening: Kinase specificity screening was performed with Invitrogen's SelectScreen® Kinase Profiling Services http://www.invitrogen.com/site/us/en/home/Products-and-Services/Services/Discoverv-Research/SelectScreen-Profiling-Service/SelectScreen-Kinase-Profiling-Service.html. The screening was performed with 1 μM compound, INT2-31, 10 μM ATP, and kinase substrates against ten recombinant kinases according to Z′-LYTET™ Kinase Assay. For PI3 kinase activity, 100 μM ATP, and kinase substrate were utilized with the Invitrogen Adapta® Universal Kinase Assay protocol. Tumor Growth in Nude Mice in vivo: Six week old athymic, female nude mice were purchased from Harlan Laboratory. The mice were maintained in the animal facility, and all experiments were performed in compliance with NIH animal-use guidelines and under an IACUC approved protocol. Melanoma cells were injected, 5×10^6 cells, subcutaneously. When the tumor size reached 100 mm^3, the INT2-31 was introduced by intraperitoneal injection at a dose of 15 mg/kg daily for 21 days. Tumor diameters were measured with calipers, and tumor volume in mm^3 was calculated using the formula [(width)^2×length]/2. At the end of experiment, tumor weight and volume were determined.

FAK = FAK (Homo sapiens, UniProt Q05397); assay: Kinase profiler screening, FAK; format: biochemical; details: 1 μM compound, 10 μM ATP
FAK, sequence (Q05397 whole entry): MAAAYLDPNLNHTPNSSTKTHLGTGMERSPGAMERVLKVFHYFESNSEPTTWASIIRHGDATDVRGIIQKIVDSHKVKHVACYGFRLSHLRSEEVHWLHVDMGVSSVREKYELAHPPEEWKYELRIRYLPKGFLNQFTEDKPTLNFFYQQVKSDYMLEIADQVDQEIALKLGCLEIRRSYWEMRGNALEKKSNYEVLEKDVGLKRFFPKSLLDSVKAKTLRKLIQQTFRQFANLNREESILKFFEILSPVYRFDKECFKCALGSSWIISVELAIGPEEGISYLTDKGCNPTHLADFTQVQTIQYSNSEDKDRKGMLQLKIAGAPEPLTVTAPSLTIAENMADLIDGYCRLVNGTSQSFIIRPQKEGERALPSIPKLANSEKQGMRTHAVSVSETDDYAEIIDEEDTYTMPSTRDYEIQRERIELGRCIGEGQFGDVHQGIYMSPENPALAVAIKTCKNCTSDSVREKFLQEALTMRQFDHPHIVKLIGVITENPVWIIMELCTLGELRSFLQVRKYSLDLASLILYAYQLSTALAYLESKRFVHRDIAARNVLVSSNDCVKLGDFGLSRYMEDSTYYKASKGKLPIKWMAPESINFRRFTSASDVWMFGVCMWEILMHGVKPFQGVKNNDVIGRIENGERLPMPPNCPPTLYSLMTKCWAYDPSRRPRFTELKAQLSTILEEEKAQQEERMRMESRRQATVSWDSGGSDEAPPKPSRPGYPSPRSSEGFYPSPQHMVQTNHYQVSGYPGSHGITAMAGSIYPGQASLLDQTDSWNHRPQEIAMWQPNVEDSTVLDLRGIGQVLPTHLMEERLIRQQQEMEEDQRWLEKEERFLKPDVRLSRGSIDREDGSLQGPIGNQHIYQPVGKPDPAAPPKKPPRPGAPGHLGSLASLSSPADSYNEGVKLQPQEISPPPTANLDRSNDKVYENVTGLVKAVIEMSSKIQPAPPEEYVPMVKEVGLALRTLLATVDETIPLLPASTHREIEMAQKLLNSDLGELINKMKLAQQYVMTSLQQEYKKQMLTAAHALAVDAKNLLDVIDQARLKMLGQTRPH
Description: as §1

[1] = system: KYSE180 esophageal cancer cells; assay: Cell viability (MTT), KYSE180; format: cell-based; details: Homo sapiens, KYSE-180; KYSE180, 72 hours; read-out: IC50 of INT2-31, cell viability
Description: (§2) Cell viability (MTT) and CFSE Proliferation assay: Cells were plated in 96-well plates and let adhere overnight. After cell treatment, cell viability was measured by 3-(4,5-dimethylthiazol-2-yl)-2,5-diphenyl tetrazolium bromide (MTT) assay (CellTiter 96® Aqueous, Promega, Madison, Wis.).
Cell viability and detachment assays: After cells were treated with siRNA transfection, cell viability was measured by 3-(4,5-dimethylthiazol2-yl)-2,5-diphenyl tetrazolium bromide (MTT) assay (CellTiter 96® AQueous, Promega, Madison, Wis.). Briefly, 20 μl of the tetrazolium compound was added to each well. The cells were then incubated at 37° C. for 1 h. The plate was read at 490 nm with a plate reader to determine the viability. In detachment assays, detached and attached cells were harvested separately and counted in a hemocytometer. The percentage of detachment was calculated by dividing the number of detached cells by the total number of cells. Apoptosis assays: After treatment, attached and detached cells were collected, counted and prepared for terminal uridine deoxynucleotidyl transferase (TUNEL) assay by utilizing an APO-BRDU kit (BD Pharmingen, San Diego, Calif.) according to the manufacturer's instructions. Stained cells were analyzed with a fluorescence-activated cell sorting-Calibur flow cytometer (BD Biosciences). […] Apoptotic cells were also analyzed by Hoechst staining. […]

[2] = system: PARP, caspase-9, caspase 8; assay: Western blot of biochemical markers of the apoptotic pathway; format: cell-based
[3] = system: FAK +/+ and FAK −/− mouse embryonic fibroblast; assay: MTT assay on FAK wildtype and null fibroblasts; format: cell-based
Description: as §2
Cell proliferation assay: Cell proliferation assay (Promega) using CellTiter 96 aqueous one solution was performed by adding a small amount of the One Solution Reagent directly to culture wells, incubating for 1-4 hours and then recording absorbance at 490 nm with a spectrophotometric plate reader. The quantity of formazan product as measured by the amount of 490 nm absorbance was directly proportional to the number of living cells in culture.
Cell viability and detachment assays: After cells were treated with siRNA transfection, cell viability was measured by 3-(4,5-dimethylthiazol2-yl)-2,5-diphenyl tetrazolium bromide (MTT) assay (CellTiter 96® AQueous, Promega, Madison, Wis.). Briefly, 20 μl of the tetrazolium compound was added to each well. The cells were then incubated at 37° C. for 1 h. The plate was read at 490 nm with a plate reader to determine the viability. In detachment assays, detached and attached cells were harvested separately and counted in a hemocytometer. The percentage of detachment was calculated by dividing the number of detached cells by the total number of cells. Apoptosis assays: After treatment, attached and detached cells were collected, counted and prepared for terminal uridine deoxynucleotidyl transferase (TUNEL) assay by utilizing an APO-BRDU kit (BD Pharmingen, San Diego, Calif.) according to the manufacturer's instructions. Stained cells were analyzed with a fluorescence-activated cell sorting-Calibur flow cytometer (BD Biosciences). Calculation of the percentage of apoptotic cells in the sample was completed with CellQuest software (BD Biosciences). Apoptotic cells were also analyzed by Hoechst staining. Hoechst 33342 ([…]) was added to the fixed cells and the specimens were mounted on glass coverslips. The slides were viewed under the Zeiss microscope for apoptotic nuclei. The percent of apoptotic cells was calculated as the ratio of apoptotic cells to total number of cells.

CSc1ncnc2c1ccn2C1O[C@H](COP(=O)(O)O)[C@@H](O)[C@H]1O (stereo partly drawn) [INT2-31, 4-(Methylthio)-7-(5-O-phosphono-D-ribofuranosyl)-{7H-Pyrrolo[2,3-d]pyrimidine}]
cell proliferation (CSFE) (A375 melanoma cells): inhibited cell proliferation
melanoma tumor regression (melanoma tumor): caused melanoma tumor regression
kinase activity of IGF-1R (IGF-1R): did not inhibit
kinase activity of FAK (FAK): did not inhibit
IC50 [1]: 19.8 µM
PARP and caspase-9 cleavage ([2]; 48 hours of treatment): PARP and caspase-9 cleavage
caspase 8 levels ([2]; Western blot): no significant effect
proliferation of FAK+/+ fibroblast cells ([3]; 0.05 μM, 72-hour treatment): reduced the proliferation
proliferation of FAK−/− cells ([3]; 0.05 μM, 72-hour treatment): no effect
effect on FAK wildtype compared to null fibroblasts ([3]; MTT, p<0.05): significantly more sensitive

From patent US20120107323A1, “KINASE PROTEIN BINDING INHIBITORS” (University of Florida, priority 2009, published 2012)
